# Assay results reported in patent US11717553B2, “Combined plant extract for getting rid of mites and acne and preparation method and use thereof” (Nanjing Institute for Comprehensive Utilization of Wild …, priority 2020, dated 2023).
# Where two headings read alike, the source gives them in different places.
# Legend:
# human follicle mites [1] = test: In vitro experiment of mite elimination by combined plant extracts and single plant extracts (Example 4); conditions: 4 h
# Description: (§1) Mites for experiments: follicle mites were obtained with a transparent tape sticking overnight. Specifically, subjects were required to clean their face thoroughly and stick a transparent tape which is 6 cm long and 1.5 cm wide to their foreheads, cheeks, noses, chins or other sites before going to bed. The tape was peeled off the next day, stuck on a glass slide and observed under a microscope.
# Preparation of samples to be tested: a total of 7 samples of combined plant extracts and single plant extracts prepared according to Examples 1-3 and Comparative Examples 1-4, were sequentially denoted as samples no. 1-7 to be tested, and diluted with deionized water to a 25% concentration for later use.
# 1.2.1 Test groups: the test solutions were denoted as no. 1-7 sequentially, a 2% metronidazole solution was used as the positive control group, and liquid paraffin was used as the blank control group. 10 follicle mites were included in each group. […]
# (§2) 1.2.2 Observation method: a micropipette was used to draw 200 μL of an agent solution and drop it on a slide. […] The tapes where follicle mites were detected were stuck on the slides to allow sufficient contact of the solution and the mites. […]
# (§3) 1.2.3 Determination of death: the mites whose limbs or feet were immobile under a 400× microscope for 1 min were initially determined to be dead, and those who still immobile after 30 min were diagnosed as dead. […]
# human follicle mites [2] = conditions: 4 h
# Description: as §1
# Preparation of samples to be tested: The combined plant extract prepared according to Example 1 was diluted with deionized water to obtain final concentrations of 100%, 50%, 25%, 12.5%, 6.25%, and 3.125% for later use.
# 1.2.1 Test groups: the combined plant extract to be tested was divided into 6 concentration gradient groups, a 2% metronidazole solution was used as the positive control group, and liquid paraffin was used as the blank control group. 10 follicle mites were included in each group. […]
# as §2, §3
smiles,measurement,setting,value
"Cc1ncc([N+](=O)[O-])n1CCO [Metronidazole, metronidazole]",Corrected mortality rate (%) ± SE,human follicle mites [1],56.73 ± 4.07%
same,Corrected mortality rate (%) ± SE,human follicle mites [2],54.66 ± 4.38%
